# Data reported in patent US20150065416A1, “NOVEL DRUG COMBINATION” (FAB PHARMA SAS, priority 2013, published 2015).
# Experiments:
# Format in all cases: cell-based, Acinetobacter baumannii
# [1] = system: A. baumannii isolates; test: Checkerboard testing (compound (I)/antibacterial agent interaction, FIC index); conditions: Acinetobacter baumannii
# Protocol: Checkerboard interaction studies were performed using 5 isolates from each of the sub-groups and time kill studies were performed using 3 isolates from each sub-group.
# Checkerboards (20 isolates, 5 per sub-group) were prepared so as to contain multiple concentrations of compound (I) with different additional antibacterial agents (amikacin, gentamicin, colistin, meropenem and tobramycin) as follows:
# Serial two-fold dilutions of the antimicrobial agents alone or in combination in wells of 96 well microtiter plates were inoculated with the appropriate inoculum so that each well contained approximately 4-5×10^4 CFU/ml. Plates were incubated at 35° C. for 16-20 hours. Combination concentrations were tested between 0.25×MIC and 2×MIC. Growth and sterility controls were also included in each plate.
# Synergy, indifference and antagonism were calculated based upon the use of the fractional inhibitory concentration (FIC) indices as described by Pillai, Moellering & Eliopoulos (2005) whereby:
# Synergism=FIC index of ≦0.5 Indifference=FIC index >1 but ≦4 Additivity >0.5 to 1 Antagonism=FIC index of >4
# Checkerboard studies were carried out as described in General Procedures using twenty different A. baumannii isolates with 5 per sub-group of: susceptible, amikacin-resistant, colistin-resistant and meropenem-resistant.
# [2] = system: A. baumannii SAN strain; test: Bactericidal activity (time kill kinetics, Example 5); conditions: alone at 2×MIC
# Protocol: In addition, a second set of experiments involved the testing of compound(I)/additional antibacterial agent combinations of 2×/2×MIC. Samples were taken at 0, 3, 6 and 24 hours in order to determine colony forming units (CFU/mL).
# [3] = system: A. baumannii isolates; test: Time kill study (Example 4); conditions: for MIC: Acinetobacter baumannii, read-out: MIC; for Time to kill 99.9%: alone
# Protocol: A total of 12 isolates were tested (three per sub-group either susceptible, meropenem-resistant, amikacin-resistant or colistin-resistant). Two combinations were tested per isolate. Time-kill kinetics were performed by testing compound (I) and an additional antibacterial agent (amikacin, colistin and meropenem) individually at 1× and 4× the corresponding MIC of each antibacterial agent. […] Samples were taken at 0, 2, 4, 8 and 24 hours in order to determine colony forming units (CFU/mL).
# Time-kill studies were carried out as described in General Procedures using combinations of compound (I) with amikacin, meropenem and colistin, respectively.
smiles,measurement,setting,value
NCC[C@H](O)C(=O)N[C@@H]1C[C@H](N)[C@@H](O[C@H]2O[C@H](CN)[C@@H](O)[C@H](O)[C@H]2O)[C@H](O)[C@H]1O[C@H]1O[C@H](CO)[C@@H](O)[C@H](N)[C@H]1O [amikacin],MIC,"[1]; A. baumannii 441142, colistin-resistant, read-out: MIC",> 1020 µg/mL
same,MIC,"[1]; A. baumannii 441160, colistin-resistant, read-out: MIC",> 1020 µg/mL
same,MIC,"[1]; A. baumannii 463996, colistin-resistant, read-out: MIC",8 µg/mL
same,MIC,"[1]; A. baumannii 466936, colistin-resistant, read-out: MIC",64 µg/mL
same,MIC,"[1]; A. baumannii 517303, colistin-resistant",128 µg/mL
same,MIC,"[1]; A. baumannii 618649, meropenem-resistant, read-out: MIC",4 µg/mL
same,MIC,"[1]; A. baumannii 625917, meropenem-resistant, read-out: MIC",4 µg/mL
same,MIC,"[1]; A. baumannii 628760, susceptible, read-out: MIC",8 µg/mL
same,MIC,"[1]; A. baumannii 637723, amikacin-resistant, read-out: MIC",256 µg/mL
same,MIC,"[1]; A. baumannii 638115, amikacin-resistant, read-out: MIC",1020 µg/mL
same,MIC,"[1]; A. baumannii 650216, meropenem-resistant, read-out: MIC",4 µg/mL
same,MIC,"[1]; A. baumannii 655932, amikacin-resistant, read-out: MIC",512 µg/mL
same,MIC,"[1]; A. baumannii 661954, amikacin-resistant, read-out: MIC",512 µg/mL
same,MIC,"[1]; A. baumannii 667848, meropenem-resistant, read-out: MIC",4 µg/mL
same,MIC,"[1]; A. baumannii 668116, susceptible, read-out: MIC",2 µg/mL
same,MIC,"[1]; A. baumannii 668239, amikacin-resistant, read-out: MIC",> 1020 µg/mL
same,MIC,"[1]; A. baumannii 670348, susceptible, read-out: MIC",8 µg/mL
same,MIC,"[1]; A. baumannii 671050, meropenem-resistant, read-out: MIC",8 µg/mL
same,MIC,"[1]; A. baumannii 672190, susceptible, read-out: MIC",4 µg/mL
same,MIC,"[1]; A. baumannii 674340, susceptible, read-out: MIC",4 µg/mL
same,effect in time-kill study when tested alone,[2],bactericidal
same,MIC,[3]; isolate MPM-R-1,4 µg/mL
same,MIC,[3]; isolate MPM-R-2,8 µg/mL
same,MIC,[3]; isolate MPM-R-3,4 µg/mL
same,MIC,[3]; isolate Sus-1,2 µg/mL
same,MIC,[3]; isolate Sus-2,4 µg/mL
same,MIC,[3]; isolate Sus-3,4 µg/mL
same,Time to kill 99.9%,"[3]; MPM-R-1, 1xMIC",1.4 h
same,Time to kill 99.9%,"[3]; MPM-R-1, 4xMIC",1.2 h
same,Time to kill 99.9%,"[3]; MPM-R-2, 1xMIC",1.3 h
same,Time to kill 99.9%,"[3]; MPM-R-2, 4xMIC",1.2 h
same,Time to kill 99.9%,"[3]; MPM-R-3, 1xMIC",1.4 h
same,Time to kill 99.9%,"[3]; MPM-R-3, 4xMIC",1.2 h
same,Time to kill 99.9%,"[3]; Sus-1, 1xMIC",1.7 h
same,Time to kill 99.9%,"[3]; Sus-1, 4xMIC",1.2 h
same,Time to kill 99.9%,"[3]; Sus-2, 4xMIC",1.2 h
same,Time to kill 99.9%,"[3]; Sus-3, 1xMIC",1.3 h
same,Time to kill 99.9%,"[3]; Sus-3, 4xMIC",1.3 h
same,effect in time-kill studies when tested alone,[3]; alone at 1× or 4×MIC,generally bactericidal
